In patent US10976310B2, “Ligand identification by co-fractionation” (MAX-PLANCK-GESELLSCHAFT ZUR FÖRDERUNG DER WISSENSCHAFTEN …, priority 2016, dated 2021):
Read-outs that look alike come from different tables or passages of the source. Peptide text beside a SMILES is read from it.

Target: T1, FBA6 (Arabidopsis thaliana, UniProt Q9SJQ9)
T1 construct: made in house; host or cells: E. coli
T1 sequence (Q9SJQ9 1-358): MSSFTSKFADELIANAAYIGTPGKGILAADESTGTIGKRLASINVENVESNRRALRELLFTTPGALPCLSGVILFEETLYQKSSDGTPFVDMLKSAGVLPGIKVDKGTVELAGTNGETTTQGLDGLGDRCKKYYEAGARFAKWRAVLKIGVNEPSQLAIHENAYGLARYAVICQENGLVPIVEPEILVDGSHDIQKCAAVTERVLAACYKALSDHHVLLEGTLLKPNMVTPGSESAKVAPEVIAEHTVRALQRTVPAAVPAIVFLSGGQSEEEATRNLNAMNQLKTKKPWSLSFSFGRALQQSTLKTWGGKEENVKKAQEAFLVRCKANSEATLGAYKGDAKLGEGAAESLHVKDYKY
Assay: Microscale thermophoresis (MST) binding to FBA6 expressed and purified from E. coli
From the text: FBA6 protein was expressed and purified from E. coli. MST uses the intristic tendency of all the biological molecules to move in the temperature gradient. This movement is dependent on the molecule size, charge and hydration shell. Complex formation affects at least one of the three parameters changing the movement and indicating binding event. […] The results obtained point to both strong and specific interaction.

Compound: dihydroxyacetone phosphate [DHAP]
- Kd (MST, FBA6 purified from E. coli, read-out: Kd of binding to FBA6): ~200 nM

Compound: NCC(=O)N1CCC[C@H]1C(=O)O [Gly-Pro, L-Gly-L-Pro] (H-Gly-Pro-OH)
- Kd: ~200 nM

Compound: O=C(O)CNC(=O)[C@@H]1CCCN1 [Pro-Gly] (H-Pro-Gly-OH)
- binding to FBA6 (in words) (MST): not
